In patent publication US20250213735A1, “NEUROPEPTIDE Y1 RECEPTOR (NPY1R) TARGETED THERAPEUTICS AND USES THEREOF” (Radionetics Oncology, Inc., priority 2023, published 2025):

Biological target: hNPY1R (Homo sapiens (Human), UniProt P25929)
Assay: NPY1R binding assay (SK-N-MC membrane, [125I]-Peptide YY competition);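 also: bound radioligand separated by filtration over GF/C filter plates and counted, Ki obtained by non-linear regression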
Details: crude SK-N-MC membranes endogenously expressing NPY1R; [125I]-Peptide YY (human) 0.05 nM; 120 min at room temperature; read-out: hNPY1R binding Ki
Procedure: Crude membrane fractions are prepared from SK-N-MC cells endogenously expressing the NPY1R receptor. The cells are grown to 85-100% confluence on standard tissue culture dishes in Eagle's Minimum Essential Medium supplemented with 10% dialyzed FBS. To prepare membranes, cells are scraped and collected in 1× Dulbecco's phosphate buffered saline and then pelleted at 1000 RPM's. The cell pellet is reconstituted in membrane preparation buffer (20 mM HEPES, 6 mM MgCl2 and 1 mM EGTA, protease inhibitor tablets, pH 7.4) and placed in a cell disruption vessel at 1000 PSI for 30 minutes on ice. The pressurized contents are then released and spun down at 1000 RPMs and the supernatant is collected and further centrifuged at 15,000 RPMs to pellet the membranes. The membrane pellet is resuspended in membrane preparation buffer, snap frozen and stored at −80° C. for later use.
Assay contents are then filtered through unifilter GF/C microplates and washed with 9×400 μl of cold wash buffer (25 mM HEPES, 5 mM MgCl2, 1 mM CaCl2), 500 mM NaCl, 0.1% Tween-20, pH 7.4). Assay plates are read using a Top Count NXT and Ki values for compounds are determined using a GraphPad Prism 6 non-linear regression analysis.

Sequence of hNPY1R (P25929 whole entry): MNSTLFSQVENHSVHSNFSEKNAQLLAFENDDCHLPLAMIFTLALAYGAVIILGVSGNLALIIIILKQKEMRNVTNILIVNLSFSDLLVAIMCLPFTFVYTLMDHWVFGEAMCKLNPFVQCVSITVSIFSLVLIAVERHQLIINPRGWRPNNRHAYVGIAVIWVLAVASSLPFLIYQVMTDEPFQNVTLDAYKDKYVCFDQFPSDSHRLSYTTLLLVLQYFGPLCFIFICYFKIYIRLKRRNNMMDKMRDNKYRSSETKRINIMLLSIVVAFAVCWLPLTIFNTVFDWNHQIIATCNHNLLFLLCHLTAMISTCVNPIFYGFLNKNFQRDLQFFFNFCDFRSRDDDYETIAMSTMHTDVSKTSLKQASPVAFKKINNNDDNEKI

Molecule `CCC(=O)NCCNC(=O)/N=C(/N)NCCC[C@@H](NC(=O)[C@H](c1ccc(OCCCNC(=O)CONC(=O)CCNC(=O)CN2CCN(CC(=O)O)CCN(CC(=O)O)CCN(CC(=O)O)CC2)cc1)N1Cc2ccccc2C1)C(=O)NCc1c(F)cc(O)cc1F` [compound 44, 2,2′,2″-(10-(14-(4-((1S,4R,Z)-9-amino-4-((2,6-difluoro-4-hydroxybenzyl)carbamoyl)-1-(isoindolin-2-yl)-2,11,16-trioxo-3,8,10,12,15-pentaazaoctadec-9-en-1-yl)phenoxy)-2,6,10-trioxo-8-oxa-3,7,11-triazatetradecyl)-1,4,7,10-tetraazacyclododecane-1,4,7-triyl)triacetic acid] has a Ki of under 0.01 µM.
